Values of other authors, collected in US20210244941A1, “METHODS AND APPARATUS FOR A WEARABLE ELECTRONIC DIGITAL THERAPEUTIC DEVICE” (KINAPTIC, LLC, priority 2018, published 2021).
Where two headings read alike, the source gives them in different places.

Tests used:
[1] = dogs, oral dosing
[2] = rats, oral dosing
[3] = not given; remark: listed apart in the source
[4] = single- (up to 80 mg) and multiple-dose studies, healthy subjects and patients

SMILES	sweat induction (sweat glands; gel containing carbachol on sensors, sedentary patient)	physical sensation or discomfort (sweat glands; iontophoresis, electrical current at 0.2 milliamps into upper layer of skin)	increase in area under the concentration-time curve (AUC) (animal models)	absorption after oral dosing (animal models, oral dosing)	excretion (rats and dogs, renal and faecal/biliary routes)	absolute bioavailability [1]	absolute bioavailability [2]	absorption ([3]; single doses, humans)	oral bioavailability ([3]; single doses, humans)	safety and tolerability ([3]; single doses, humans)	accumulation [3, 4]	pharmacokinetics versus dose [3, 4]
C[N+](C)(C)CCOC(N)=O [carbachol]	effective to induce sweat	no physical sensation or discomfort										
O=C(NC[C@H]1CN(c2ccc(N3CCOCC3=O)cc2)C(=O)O1)c1ccc(Cl)s1 [rivaroxaban]			dose proportional increase	absorbed rapidly	rapidly excreted	60-86%	57-66%	rapid absorption	high	safe and well tolerated	no evidence of accumulation	dose-proportional
